Reference: patent publication US9415108B2, “Compositions for transdermal delivery of active agents” (NeuroDerm, Ltd., priority 2010, dated 2016)

Columns and labels:
Assay type in all cases: in vitro ADME
[1] = Transdermal delivery of carbidopa through full thickness pig skin ex vivo, Franz Cell delivery system; settings: for Transdermal delivery of Carbidopa through full thickness pig skin, ex vivo: 24 h, 8.85% carbidopa-arginine salt
Experimental: The effects of octanol, limonene and/or lauroglycol on the transdermal delivery of carbidopa through full thickness pig skin are evaluated using the Franz Cell delivery system. Formulations containing carbidopa, octanol, limonene, and/or lauroglycol are prepared (formulations 1-8). Samples are collected from the receive cell at 24 and 41 hours after application of the formulation to the skin. The amount of carbidopa compounds in the receiver cell fluid is determined using a spectrophotometer and/or UV-HPLC at 280 nm. […] In Table 1 and FIG. 1, the formulations each contain 14.5% (by weight) carbidopa-arginine salt. In Table 2 the formulations each contain 8.85% (by weight) carbidopa-arginine salt.

[2] = Transdermal delivery of opipramol through full thickness pig skin ex vivo
Experimental: FIG. 7 depicts the effect of organic acids on the transdermal delivery of opipramol through full thickness pig skin. Formulations containing opipramol, various organic acids (succinic acid, citric acid, lactic acid, ascorbic acid, malic acid, or tartaric acid), octanol, lauroglycol, and/or Klucel® are prepared. Samples are collected from the receive cell at 22 and 46 hours after application of the formulations to the skin. The amount of opipramol compounds in the receiver cell fluid is determined using a spectrophotometer and/or UV-HPLC at 280 nm. FIG. 8 depicts the effects of octanol, limonene and/or lauroglycol on the transdermal delivery of opipramol (5% by weight) through full thickness pig skin.

[3] = as above; remark: listed apart in the source
[4] = inclusion of Klucel hydroxypropyl cellulose in formulation containing octanol and limonene (FIG. 4)

C[C@@](Cc1ccc(O)c(O)c1)(NN)C(=O)O [Carbidopa, carbidopa]
Transdermal delivery of Carbidopa through full thickness pig skin, ex vivo ([1]; Octanol 0, Limonene 1.5, Oleic Acid 0): 1.0 mg/cm^2
Transdermal delivery of Carbidopa through full thickness pig skin, ex vivo ([1]; Octanol 0, Limonene 1.5, Oleic Acid 2): 1.0 mg/cm^2
Transdermal delivery of Carbidopa through full thickness pig skin, ex vivo ([1]; Octanol 4, Limonene 1.5, Oleic Acid 0): 6.4 mg/cm^2
Effect of the combination of octanol and lauroglycol on delivery of carbidopa through pig skin ([1]; FIG. 1, depends on the octanol:lauroglycol ratio): enhances
Effect of the combination of octanol and limonene on delivery of carbidopa through pig skin ([1]; FIGS. 1 and 2, Tables 1 and 2): additive and/or synergistic effect
Effect on lag time of carbidopa penetration through the skin ([1]; addition of lactic acid to formulation containing octanol and limonene (FIG. 3)): reduces
Effect on lag time of carbidopa penetration [1, 4]: increases
Effect on rate of carbidopa penetration through the skin [1, 4]: reduces
Enhancement of penetration of the drug through the skin ([1]; on increasing the amount of carbidopa in the formulation by 50% (FIG. 5)): 25%

OCCN1CCN(CCCN2c3ccccc3C=Cc3ccccc32)CC1 [opipramol]
Effect of addition of organic acids on transdermal delivery of opipramol ([2]; FIG. 7): significantly increases
Effect of lactic acid and citric acid on opipramol penetration through the skin ([2]; FIG. 7): minimal effect
Effect of tartaric acid on opipramol delivery relative to other organic acids ([2]; FIG. 7, followed by ascorbic, succinic and malic acid): highest enhancing effect
Effect of lauroglycol in the formulation on opipramol delivery ([2]; FIG. 8, Table 3): reduces the additive and/or synergistic effect
Effect of the combination of octanol and limonene on delivery of opipramol through pig skin ([2]; FIG. 8, opipramol 5% by weight): additive and/or synergistic effect
Effect of glutamic acid on opipramol penetration through the skin ([3]; FIG. 9): significantly increases
Effect of increasing concentration of Klucel on penetration of opipramol through the skin ([3]; FIG. 10): reduces
Effect of tartaric acid on opipramol penetration through the skin as compared to opipramol base ([3]; FIG. 11): significantly increases
Tartaric acid compared with hydrochloric acid, opipramol penetration ([3]; FIG. 11): significantly superior
Opipramol delivery of formulation containing 2.5% (wt) opipramol ([3]; FIG. 12, compared with 1% formulation): delivers more opipramol than the 1% formulation
Transdermal delivery of opipramol at 5% opipramol in the formulation ([3]; FIG. 12, higher concentration): may be inhibited
Rate of opipramol penetration ([3]; glutamic acid formulation, in the presence of 1% limonene (FIG. 9)): reduced
Lag time of opipramol penetration through the skin ([3]; glutamic acid formulation, in the presence of 5% water (FIG. 9)): shortened
